From patent US6448273B1, “Orally active iron (III) chelators” (BTG International Limited, priority 1997, dated 2002) come the findings set out here.

The nature of data set [1]: Distribution coefficient DpH7.4 (Kpart), octanol/MOPS pH 7.4. Type of data set: physicochemical. The text has this: The requirements for orally active chelators are set out in Table 4 of Hider et al as (i) good absorption from tile gastrointestinal tract, (ii) efficient liver extraction, (iii) poor entry into peripheral cells such as thymus, muscle, heart and bone marrow and (iv) poor ability to penetrate the blood-brain barrier and maternal/placental barriers.

A short description of a further data set: pKa of the ligand. Type of data set: physicochemical.
The nature of data set [2]: Iron (III) complex stability constant Logβ3. It counts as physicochemical.
Data set [3] in a line: pM for Iron III (affinity for iron as Fe III). It counts as physicochemical. To be noted: negative log ferric ion concentration; total iron 10^-6 M, ligand 10^-5 M. An excerpt: The present inventors now have provided a group of 3-hydroxypyridin-4-one iron chelators having improved properties as compared to the prior art as assessed against the criteria set out above. […] Preferred compounds have efficiency of iron mobilisation of in excess of 52% when given orally to rats. […]

Data set [4] is described as follows: Iron III Mobilisation Efficacy Assay in Rat: Oral Administration. Conditions: for Efficacy: iron mobilisation less control. It counts as in vivo. The method, then: Control rats were given an equivalent volume of water. The rats were placed in individual metabolic cages and their urine and faeces collected. One hour after the administration they were allowed access to food, with no restriction on water being made throughout the study period. The investigation was terminated 24 hours after the ^59Fe ferritin administration when rats were sacrificed and their livers and gastrointestinal tracts, including all contents including faeces, were removed for gamma counting.

Setting [5] is: method marked (p), first pKa, read-out: pKa, first value (p).
Where [6] appears, read: method marked (p), second pKa, read-out: pKa, second value (p).
[7] abbreviates: method marked (s), first pKa, read-out: pKa, first value (s).
Setting [8] is: method marked (s), second pKa, read-out: pKa, second value (s).

Structures can show the parent of a compound that is named as a salt. Where two headings read alike, the source gives them in different places.

On to `CNC(=O)c1c(O)c(=O)cc(C)n1C` (as salt: hydrochloride) [CP502, 1,6-Dimethyl-3-hydroxy-4(1H)-pyridinone-2-carboxy-(N-methyl)-amide hydrochloride], for which the melting point – broadly, the temperature, or range, at which the solid turns liquid – is 238 °C (dec.).
Still for that read-out and setting: the same measure for `CC(O)c1c(O)c(=O)ccn1CCCO` (stereo not drawn) (as salt: hydrochloride) [CP372, 1-(3-hydroxypropyl)-2-(1-hydroxyethyl)-3-hydroxy-pyridin-4(1H)-one hydrochloride]: 117 to 120 °C; for `Cc1cc(=O)c(O)c(C(=O)NCCO)n1C` (as salt: hydrochloride) [CP507, 1,6-Dimethyl-3-hydroxy-4(1H)-pyridinone-2-carboxy-(N-2′-hydroxyethyl)-amide hydrochloride]: 178 to 181 °C.
Regarding `O=C(OCCCn1ccc(=O)c(O)c1CO)c1ccccc1` [CP367, 1-[(3-Benzoyloxy)propyl]-2-hydroxymethyl-3-hydroxy-pyridin-4(1H)-one hydrochloride], in data set [1], the “DpH 7.4” value was 5.61. Also, the pKa (in general, the pH at which an ionisable group is half protonated) came to 2.6 in the data set “pKa of the ligand” (setting [5]), 9.07 in the data set “pKa of the ligand” (setting [6]), 2.7 in “pKa of the ligand” (setting [7]) and 8.95 in the data set “pKa of the ligand” (setting [8]).
`CCOC(C)c1c(O)c(=O)cc(C)n1C` (stereo not drawn) (as salt: hydrochloride) [CP373, 1,6-Dimethyl-2-(1-ethoxyethyl)-3-hydroxy-pyridin-4(1H)-one hydrochloride] yielded a melting point of 195 to 199 °C.
In the case of `COCc1cc(=O)c(O)c(COC)n1C` [CP388, 2,6-Dimethoxymethyl-1-methyl-3-hydroxypyridin-4(1H)-one hydrochloride], the “DpH 7.4” value in data set [1] is 0.40. The pKa stood at 2.93 in “pKa of the ligand” (setting [5]), 8.87 in the data set “pKa of the ligand” (setting [6]), 2.73 in the data set “pKa of the ligand” (setting [7]) and 8.77 in the data set “pKa of the ligand” (setting [8]). In addition, the Logβ3 in data set [2] is listed as 34.5. The “pMpH 7.45” value in data set [3] is given as 21.1.
For `O=c1ccn(CCO)c(C(O)c2ccccc2)c1O` (stereo not drawn) [Novartis bidentate ligand (3), reference compound], in data set [1], the “DpH 7.4” value was 2.81. Moreover, the pKa in “pKa of the ligand” (setting [5]) is 2.59; in the data set “pKa of the ligand” (setting [6]), 8.38; in “pKa of the ligand” (setting [7]) it was 2.6; in “pKa of the ligand” (setting [8]), 8.39. Besides, in data set [2], the Logβ3 stood at 35.57. The “pMpH 7.45” value in data set [3] is recorded as 23.15.
For `Cc1cc(=O)c(O)c(C(C)O)n1C` (stereo not drawn) [CP361, 1,6-Dimethyl-2-(1-hydroxyethyl)-3-hydroxy-pyridin-4(1H)-one hydrochloride], the “DpH 7.4” value in data set [1] is listed as 0.25. Also, the “pKa, first value (s)” value in the data set “pKa of the ligand” (method marked (s), first pKa) is listed as 3.55. Besides, in the data set “pKa of the ligand” (method marked (s), second pKa), the “pKa, second value (s)” value is recorded as 8.97. Moreover, the Logβ3 in data set [2] is recorded as 3.52. In addition, the “pMpH 7.45” value in data set [3] is 21.47.
For `CCC(OC)c1c(O)c(=O)cc(C)n1C` (stereo not drawn) [CP375, 1,6-Dimethyl-2-(1-methoxypropyl)-3-hydroxy-pyridin-4(1H)-one hydrochloride], the “DpH 7.4” value in data set [1] came out at 3.85. Also, the “Iron Mobilisation” value turned out to be 40.2 ± 8.5% in data set [4] (150 μmol/kg) and 72.0 ± 8.2% in data set [4] (450 μmol/kg). Moreover, the Efficacy is 36.3% in data set [4] (150 μmol/kg) and 68.1% in data set [4] (450 μmol/kg).
Turning to `CCn1c(C)cc(=O)c(O)c1CO` [CP369, 1-Ethyl-2-hydroxymethyl-3-hydroxy-6-methyl-pyridin-4(1H)-one hydrochloride], the “DpH 7.4” value in data set [1] turned out to be 0.223. For the same compound, in “pKa of the ligand” (method marked (s), first pKa), the “pKa, first value (s)” value is 3.28. The “pKa, second value (s)” value in the data set “pKa of the ligand” (method marked (s), second pKa) is recorded as 9.38. Also, in data set [2], the Logβ3 turned out to be 35.6. Also, in data set [3], the “pMpH 7.45” value was 20.35.
In the same order, the values of `CCn1ccc(=O)c(O)c1C(C)O` (stereo not drawn) [CP365, 1-Ethyl-2-(1-hydroxyethyl)-3-hydroxy-pyridin-4(1H)-one hydrochloride] are 0.27, 3.11, 8.74, 34.8 and 21.3.
In the case of `COC(C)c1c(O)c(=O)cc(C)n1C` (stereo not drawn) [CP363, 1,6-Dimethyl-2-(1-methoxyethyl)-3-hydroxy-pyridin-4(1H)-one hydrochloride], the “DpH 7.4” value in data set [1] was 1.09. In addition, the pKa in the data set “pKa of the ligand” (setting [5]) turned out to be 3.2; in the data set “pKa of the ligand” (setting [6]), 9.44; in “pKa of the ligand” (setting [7]), 3.22; in the data set “pKa of the ligand” (setting [8]) it was 9.43. The “Iron Mobilisation” value in data set [4] (150 μmol/kg) is on record as 40.7 ± 2.4%; in data set [4] (300 μmol/kg), 66.9 ± 8.7%; in data set [4] (450 μmol/kg), 73.5 ± 8.1%. Moreover, the Efficacy in data set [4] (150 μmol/kg) came out at 36.8%; in data set [4] (300 μmol/kg), 63.0%; in data set [4] (450 μmol/kg) it was 69.6%.
As for `Cc1cc(=O)c(O)c(CO)n1C` (as salt: hydrochloride) [CP360, 1,6-Dimethyl-2-hydroxymethyl-3-hydroxy-pyridin-4(1H)-one hydrochloride], the melting point lay in the range of 140 to 143 °C.
On to `Cc1cc(=O)c(O)c(C(=O)NC(C)C)n1C` [CP504, 1,6-Dimethyl-3-hydroxy-4(1H)-pyridinone-2-carboxy-(N-isopropyl)-amide hydrochloride], for which the “DpH 7.4” value in data set [1] is given as 0.30. Besides, the pKa in “pKa of the ligand” (setting [5]) was 2.81; in the data set “pKa of the ligand” (setting [6]), 8.74; in the data set “pKa of the ligand” (setting [7]), 2.64; in the data set “pKa of the ligand” (setting [8]), 8.56. Also, in data set [2], the Logβ3 is 35.34. Also, the “pMpH 7.45” value in data set [3] is on record as 22.46.
Compound `Cc1cc(=O)c(O)c(C(C)O)n1C` (stereo not drawn) (as salt: hydrochloride) [CP361, 1,6-Dimethyl-2-(1-hydroxyethyl)-3-hydroxy-pyridin-4(1H)-one hydrochloride] showed a melting point of 208 to 212 °C.
Still for that read-out and setting: the same measure for `CCn1ccc(=O)c(O)c1CO` (as salt: hydrochloride) [CP359, 1-Ethyl-2-hydroxymethyl-3-hydroxy-pyridin-4(1H)-one hydrochloride]: 168 to 169 °C.
Same read-out and setting: as for `CCn1c(C)cc(=O)c(O)c1CO` (as salt: hydrochloride) [CP369, 1-Ethyl-2-hydroxymethyl-3-hydroxy-6-methyl-pyridin-4(1H)-one hydrochloride], the figure is 160 to 162 °C.
As to `CCOC(C)c1c(O)c(=O)cc(C)n1C` (stereo not drawn) [CP373, 1,6-Dimethyl-2-(1-ethoxyethyl)-3-hydroxy-pyridin-4(1H)-one hydrochloride], in data set [1], the “DpH 7.4” value was found to be 3.32.
Regarding `Cn1ccc(=O)c(O)c1CO` (as salt: hydrochloride) [CP364, 1-Methyl-2-hydroxymethyl-3-hydroxy-pyridin-4(1H)-one hydrochloride], the melting point lay within 157 to 159 °C.
Consider `CCn1c(C)cc(=O)c(O)c1COC` [CP370, 1-Ethyl-2-methoxymethyl-3-hydroxy-6-methyl-pyridin-4(1H)-one hydrochloride], for which, in data set [1], the “DpH 7.4” value came out at 1.08.
Take `COCc1c(O)c(=O)cc(C)n1C` [CP362]: in data set [1], the “DpH 7.4” value came to 0.42.
With `Cn1c(CO)cc(=O)c(O)c1CO` [CP387], the “DpH 7.4” value in data set [1] was determined as 0.04.
The compound `CCC(O)c1c(O)c(=O)cc(C)n1C` (stereo not drawn) (as salt: hydrochloride) [CP374, 1,6-Dimethyl-2-(1-hydroxypropyl)-3-hydroxy-pyridin-4(1H)-one hydrochloride] gave a melting point of 221 to 223 °C.
Still for that read-out and setting: as for `Cc1cc(=O)c(O)c(C(=O)N(C)C)n1C` (as salt: hydrochloride) [CP508, 1,6-Dimethyl-3-hydroxy-4(1H)-pyridinone-2-carboxy-(N,N-dimethyl)-amide hydrochloride], the figure is 219 °C (dec.).
The compound `COCCNC(=O)c1c(O)c(=O)cc(C)n1C` (as salt: hydrochloride) [CP506, 1,6-Dimethyl-3-hydroxy-4(1H)-pyridinone-2-carboxy-(N-2′-methoxyethyl)-amide hydrochloride] showed a melting point of 204 to 206 °C.
Same read-out and setting: the same measure for `CCn1c(C)cc(=O)c(O)c1COC` (as salt: hydrochloride) [CP370, 1-Ethyl-2-methoxymethyl-3-hydroxy-6-methyl-pyridin-4(1H)-one hydrochloride]: 174 to 176 °C.
The compound `COCc1cc(=O)c(O)c(COC)n1C` (as salt: hydrochloride) [CP388, 2,6-Dimethoxymethyl-1-methyl-3-hydroxypyridin-4(1H)-one hydrochloride] yielded a melting point of 161 to 163 °C.
Same read-out and setting: the same measure for `O=C(OCCCn1ccc(=O)c(O)c1CO)c1ccccc1` (as salt: hydrochloride) [CP367, 1-[(3-Benzoyloxy)propyl]-2-hydroxymethyl-3-hydroxy-pyridin-4(1H)-one hydrochloride]: 142 to 143 °C; for `CCC(OC)c1c(O)c(=O)cc(C)n1C` (stereo not drawn) (as salt: hydrochloride) [CP375, 1,6-Dimethyl-2-(1-methoxypropyl)-3-hydroxy-pyridin-4(1H)-one hydrochloride]: 225 to 227 °C; for `COC(C)c1c(O)c(=O)cc(C)n1C` (stereo not drawn) (as salt: hydrochloride) [CP363, 1,6-Dimethyl-2-(1-methoxyethyl)-3-hydroxy-pyridin-4(1H)-one hydrochloride]: 205 to 207 °C.
